Each block holds one molecule with its values, some of them ahead of it.
Tests used:
[1] = molecular target: T1, human ABCC4 (Homo sapiens, UniProt O15439); assay: Uptake into inside-out Sf9 vesicles expressing ABCC4; settings: GSH 2mM
T1 sequence (O15439 1-1325): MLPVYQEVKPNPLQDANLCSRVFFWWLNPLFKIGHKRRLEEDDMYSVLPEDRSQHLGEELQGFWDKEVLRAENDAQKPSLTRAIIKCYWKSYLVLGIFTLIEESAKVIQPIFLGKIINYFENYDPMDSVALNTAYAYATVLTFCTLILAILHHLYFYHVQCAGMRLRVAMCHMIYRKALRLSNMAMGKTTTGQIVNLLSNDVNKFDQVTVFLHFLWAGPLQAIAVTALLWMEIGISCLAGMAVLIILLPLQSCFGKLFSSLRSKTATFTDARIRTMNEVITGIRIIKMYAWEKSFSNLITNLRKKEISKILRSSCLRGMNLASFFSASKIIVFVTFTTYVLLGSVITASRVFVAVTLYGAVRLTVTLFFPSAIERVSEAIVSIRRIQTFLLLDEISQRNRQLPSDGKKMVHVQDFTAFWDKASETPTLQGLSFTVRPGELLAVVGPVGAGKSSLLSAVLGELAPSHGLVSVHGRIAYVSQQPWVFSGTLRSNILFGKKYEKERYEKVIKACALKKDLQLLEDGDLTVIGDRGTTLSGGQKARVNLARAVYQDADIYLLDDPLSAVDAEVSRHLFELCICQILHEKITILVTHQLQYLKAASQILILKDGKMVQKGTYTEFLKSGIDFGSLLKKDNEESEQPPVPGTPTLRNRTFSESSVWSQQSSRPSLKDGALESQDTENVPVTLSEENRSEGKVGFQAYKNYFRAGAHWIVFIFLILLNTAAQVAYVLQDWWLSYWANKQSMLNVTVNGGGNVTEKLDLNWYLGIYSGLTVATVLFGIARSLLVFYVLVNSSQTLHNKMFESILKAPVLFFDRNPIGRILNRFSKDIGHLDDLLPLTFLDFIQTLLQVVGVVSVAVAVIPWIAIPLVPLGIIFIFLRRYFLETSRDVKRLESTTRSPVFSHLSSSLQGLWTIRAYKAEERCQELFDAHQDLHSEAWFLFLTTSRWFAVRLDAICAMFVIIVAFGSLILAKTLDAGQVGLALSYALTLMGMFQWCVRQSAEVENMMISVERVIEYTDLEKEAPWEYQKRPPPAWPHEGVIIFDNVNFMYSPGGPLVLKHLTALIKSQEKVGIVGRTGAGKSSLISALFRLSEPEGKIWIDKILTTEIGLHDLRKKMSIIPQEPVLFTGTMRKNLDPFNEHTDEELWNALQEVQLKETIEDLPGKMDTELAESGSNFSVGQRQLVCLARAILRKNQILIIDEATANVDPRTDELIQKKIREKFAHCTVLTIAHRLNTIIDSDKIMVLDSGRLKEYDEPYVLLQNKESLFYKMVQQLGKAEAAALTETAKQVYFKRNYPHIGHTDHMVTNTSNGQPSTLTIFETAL

[2] = tested on: ABCC4; settings: cited from earlier work; for Km: read-out: Michaelis-Menten constant (Km) for ABCC4
[3] = ref 24 (methotrexate), 14 (cefadroxil); cited from earlier work
[4] = molecular target: T2, mouse Abcc4 (Mus musculus, UniProt E9Q236); settings: 4 h
T2 sequence (E9Q236 1-1325): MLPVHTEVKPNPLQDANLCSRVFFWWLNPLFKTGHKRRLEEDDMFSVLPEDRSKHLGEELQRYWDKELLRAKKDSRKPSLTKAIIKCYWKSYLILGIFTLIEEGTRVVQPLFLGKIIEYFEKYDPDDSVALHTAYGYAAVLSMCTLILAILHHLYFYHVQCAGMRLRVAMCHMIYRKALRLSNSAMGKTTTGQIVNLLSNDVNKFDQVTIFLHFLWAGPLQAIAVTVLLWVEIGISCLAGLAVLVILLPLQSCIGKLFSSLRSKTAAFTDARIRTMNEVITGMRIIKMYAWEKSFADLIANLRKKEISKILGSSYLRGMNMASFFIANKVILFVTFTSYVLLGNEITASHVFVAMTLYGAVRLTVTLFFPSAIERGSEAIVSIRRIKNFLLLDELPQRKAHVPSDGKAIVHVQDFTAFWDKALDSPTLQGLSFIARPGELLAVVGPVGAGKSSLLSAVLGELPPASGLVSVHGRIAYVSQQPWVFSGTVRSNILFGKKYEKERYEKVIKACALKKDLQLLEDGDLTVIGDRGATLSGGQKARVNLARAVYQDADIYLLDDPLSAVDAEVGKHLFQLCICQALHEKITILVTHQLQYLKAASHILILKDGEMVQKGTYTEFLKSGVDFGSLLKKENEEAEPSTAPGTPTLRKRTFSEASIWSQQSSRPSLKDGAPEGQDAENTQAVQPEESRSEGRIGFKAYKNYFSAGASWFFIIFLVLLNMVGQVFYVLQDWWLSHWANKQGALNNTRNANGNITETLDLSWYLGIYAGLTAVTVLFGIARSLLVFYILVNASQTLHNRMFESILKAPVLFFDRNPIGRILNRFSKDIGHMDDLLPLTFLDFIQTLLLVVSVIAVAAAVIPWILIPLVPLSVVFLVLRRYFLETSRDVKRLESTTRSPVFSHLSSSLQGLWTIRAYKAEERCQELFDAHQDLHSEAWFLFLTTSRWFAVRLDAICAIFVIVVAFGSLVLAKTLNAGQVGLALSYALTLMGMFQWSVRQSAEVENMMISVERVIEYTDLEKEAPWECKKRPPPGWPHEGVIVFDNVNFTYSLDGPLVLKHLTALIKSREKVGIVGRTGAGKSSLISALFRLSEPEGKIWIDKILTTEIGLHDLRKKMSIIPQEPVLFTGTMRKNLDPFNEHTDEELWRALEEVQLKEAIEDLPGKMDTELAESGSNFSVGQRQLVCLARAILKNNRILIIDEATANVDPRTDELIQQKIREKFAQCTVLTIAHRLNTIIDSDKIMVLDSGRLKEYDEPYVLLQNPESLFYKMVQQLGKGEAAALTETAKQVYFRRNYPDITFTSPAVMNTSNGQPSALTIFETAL

[5] = Plasma pharmacokinetics in wildtype and Abcc4; settings: oral 50 mg/kg, wildtype vs Abcc4(−/−) mice
[6] = molecular target: T2, mouse Abcc4; assay: Accumulation/efflux in Saos-2 cells transfected with Abcc4; settings: 100 μM, 4-h incubation

increase of ABCC4-mediated transport by GSH [1]: about 2 fold
SMILES: C[C@]12CC[C@@H]3c4ccc(O)cc4CC[C@H]3[C@@H]1CC[C@@H]2O[C@@H]1O[C@H](C(=O)O)[C@@H](O)[C@H](O)[C@H]1O [E2G, Estradiol-17β-D-glucuronide]

SMILES: CN(Cc1cnc2nc(N)nc(N)c2n1)c1ccc(C(=O)N[C@@H](CCC(=O)O)C(=O)O)cc1 [MTX, methotrexate]
Km [2]: 220 to 1300 µM | pharmacokinetic profile after oral administration in Abcc4(−/−) mice [3]: unchanged

SMILES: Nc1ncnc2c1ncn2CCOCP(=O)(O)O [adefovir]
Km [2]: > 1000 µM

substrate of mouse Abcc4 [4]: substrates of mouse Abcc4
SMILES: CC(=O)Oc1ccccc1C(=O)O [aspirin, acetylsalicylic acid]
transported substrate of human ABCC4 [2]: transported substrate of human ABCC4

SMILES: CC1=C(C(=O)O)N2C(=O)[C@@H](NC(=O)[C@H](N)c3ccc(O)cc3)[C@H]2SC1 [cefadroxil]
pharmacokinetic profile after oral administration in Abcc4(−/−) mice [3]: unchanged

effect of Abcc4-deficiency on the oral pharmacokinetic profile [5]: not substantially affected | transport by mouse Abcc4 (accumulation in Saos-2 cells overexpressing Abcc4 compared to control cells) [6]: no noticeable efflux transport
SMILES: Cc1ccc(NC(=O)c2ccc(CN3CCN(C)CC3)cc2)cc1Nc1nccc(-c2cccnc2)n1 [imatinib]

SMILES: Nc1nc2c(c(=O)[nH]1)N(C=O)C(CNc1ccc(C(=O)N[C@@H](CCC(=O)O)C(=O)O)cc1)CN2 (stereo partly drawn) [leucovorin]
Km [2]: 640 µM

substrate of mouse Abcc4 [4]: substrates of mouse Abcc4
SMILES: O=C(O)c1ccccc1O [salicylic acid]

SMILES: C[C@H](Cn1cnc2c(N)ncnc21)OCP(=O)(O)O [tenofovir]
Km [2]: > 1000 µM
